The assay has as its target Proto-oncogene tyrosine-protein kinase Src (Mus musculus, UniProt P05480). Put plainly: Kinase Assay. As for the experimental part:
2,6,9-Trisubstituted purines were evaluated for their src kinase inhibitory activities using an ELISA assay.
Chain of Proto-oncogene tyrosine-protein kinase Src (P05480 2-535 limits assumed): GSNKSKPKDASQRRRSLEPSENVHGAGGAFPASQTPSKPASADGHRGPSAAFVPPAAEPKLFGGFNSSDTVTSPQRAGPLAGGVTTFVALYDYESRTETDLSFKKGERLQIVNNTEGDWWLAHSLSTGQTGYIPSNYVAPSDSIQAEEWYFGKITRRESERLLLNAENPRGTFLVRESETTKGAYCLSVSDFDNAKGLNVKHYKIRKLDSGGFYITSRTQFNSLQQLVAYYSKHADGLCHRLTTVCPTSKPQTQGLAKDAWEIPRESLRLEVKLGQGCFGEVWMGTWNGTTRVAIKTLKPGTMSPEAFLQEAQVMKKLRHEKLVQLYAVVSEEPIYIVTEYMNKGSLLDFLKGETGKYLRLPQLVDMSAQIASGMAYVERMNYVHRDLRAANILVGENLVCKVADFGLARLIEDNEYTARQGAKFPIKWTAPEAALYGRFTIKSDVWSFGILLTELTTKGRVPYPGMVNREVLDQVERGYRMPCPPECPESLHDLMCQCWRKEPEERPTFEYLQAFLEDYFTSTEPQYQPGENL
By IC50 is commonly meant the concentration needed to halve the response being measured. For `CCn1cnc2c(Nc3ccc(P(=O)(O)CP(=O)(O)O)cc3)nc(C3CCNCC3)nc21` [2,6,9-Trisubstituted Purine, 4], 665 nM corresponded to half-maximal inhibition (IC50).
The same measure for `CCn1cnc2c(Nc3ccc(P(=O)(O)CP(=O)(O)O)cc3)nc(CC3CCNCC3)nc21` [2,6,9-Trisubstituted Purine, 5]: 2310 nM.
The same measure for `CCn1cnc2c(Nc3ccc(P(=O)(O)CP(=O)(O)O)cc3)nc(CCC3CCNCC3)nc21` [2,6,9-Trisubstituted Purine, 6]: 1010 nM.
The same measure for `CCn1cnc2c(Nc3ccc(P(=O)(O)CP(=O)(O)O)cc3)nc(CC3CCCNC3)nc21` (stereo not drawn) [2,6,9-Trisubstituted Purine, 7]: 2300 nM; for `CCn1cnc2c(Nc3ccc(P(=O)(O)CP(=O)(O)O)cc3)nc(C[C@H]3CC[C@H](N)CC3)nc21` [2,6,9-Trisubstituted Purine, 9]: 205 nM; for `CCn1cnc2c(Nc3ccc(P(=O)(O)CP(=O)(O)O)cc3)nc(C[C@H]3CC[C@@H](N)CC3)nc21` [2,6,9-Trisubstituted Purine, 10]: 101 nM.
`CCn1cnc2c(Nc3ccc(P(=O)(O)CP(=O)(O)O)cc3)nc(CCCCN)nc21` [2,6,9-Trisubstituted Purine, 11] yielded an IC50 of 2110 nM.
With `CCn1cnc2c(Nc3ccccc3)nc([C@H]3CC[C@H](N)CC3)nc21` [2,6,9-Trisubstituted Purine, AP23517] the figure was 73 nM.

The record behind these values is BindingDB's records for doi:10.1111/j.1747-0285.2007.00615.x (Ariad Pharmaceuticals, 2008).
